According to patent US12180197B2, “GLP-1R modulating compounds” (Gilead Sciences, Inc., priority 2021, dated 2024):

Target: GLP-1R (Homo sapiens, UniProt P43220)
Assay: GLP-1R Activation - cAMP Assay 1
Type: cell-based
Details: cAMP increase in CHO cells stably expressing GLP-1R; 30 minutes incubation; 10 point dose response
Method: GLP-1R Activation—cAMP Assay 1
GLP-1R activation by a compound of the present disclosure was quantified by measuring cAMP increase in CHO cells stably expressing GLP-1R (MultiSpan product #C1267-1a). The cells were harvested and plated in growth medium (DMEM/F-12 (Corning product #10-090-CV) supplemented with 10% FBS (HyClone product #SH30071-03), penicillin/streptomycin (Corning product #30-002CI) and 10 µg/ml puromycin (Gibco product #A11138-03)) at 1,000 cells/well in a 384-well plate (Greiner product #781080). The cells were then incubated overnight at 37° C., 5% CO2. The next day, the medium was removed and the cells were washed with DPBS (Corning product #21-031-CM) before adding the assay medium (HBSS, Corning product #21-023-CV) with 20 mM Hepes (Gibco product #15630-080) and 0.1% BSA (Rockland Immunochemicals product #BSA-1000)). Following the medium change, the cells were incubated for 1 hour at 37° C., 5% CO2. The tested GLP-1 compound was added to the cells in a 10 point dose response followed by a 30 minutes incubation at 37° C., 5% CO2. cAMP concentration increase was then detected using Cisbio's cAMP Gs Dynamic Kit (product #62AM4PEC) according to the manufacturer's protocol. The response was plotted against the log of the agonist concentration and fitted to a sigmoidal equation to determine the EC50.

Sequence of GLP-1R (P43220 24-463): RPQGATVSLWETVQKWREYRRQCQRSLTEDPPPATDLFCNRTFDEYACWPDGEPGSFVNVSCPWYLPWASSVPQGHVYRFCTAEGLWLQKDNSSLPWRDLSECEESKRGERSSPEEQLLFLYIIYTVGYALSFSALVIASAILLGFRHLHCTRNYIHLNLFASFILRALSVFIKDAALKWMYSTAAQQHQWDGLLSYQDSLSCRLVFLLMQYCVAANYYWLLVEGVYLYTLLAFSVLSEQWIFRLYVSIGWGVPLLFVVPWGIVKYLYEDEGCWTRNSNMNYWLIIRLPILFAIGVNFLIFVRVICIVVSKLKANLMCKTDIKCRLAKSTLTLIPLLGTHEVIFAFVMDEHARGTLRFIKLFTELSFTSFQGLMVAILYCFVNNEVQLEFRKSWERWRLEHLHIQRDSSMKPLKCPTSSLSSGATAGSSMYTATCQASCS

| Compound | EC50 [nM] |
| --- | --- |
| COCCn1c(CN2CCC(c3cccc(OCc4ccc(C(=O)N(C)C)cc4F)n3)CC2)nc2ccc(C(=O)O)cc21 [Example 11, 2-((4-(6-((4-(dimethylcarbamoyl)-2-fluorobenzyl)oxy)pyridin-2-yl)piperidin-1-yl)methyl)-1-(2-methoxyethyl)-1H-benzo[d]imidazole-6-carboxylic acid] | 9910 |
| COCCn1c(CN2CCC(c3cccc(OCc4cccc(-c5noc(C)n5)c4)n3)CC2)nc2ccc(C(=O)O)cc21 [Example 10, 1-(2-methoxyethyl)-2-((4-(6-((3-(5-methyl-1,2,4-oxadiazol-3-yl)benzyl)oxy)pyridin-2-yl)piperidin-1-yl)methyl)-1H-benzo[d]imidazole-6-carboxylic acid] | 66.9 |
| COCCn1c(CN2CCC(c3cccc(OCc4ccc(C(O)(C(F)(F)F)C(F)(F)F)cc4)n3)CC2)nc2ccc(C(=O)O)cc21 [Example 2, 2-((4-(6-((4-(1,1,1,3,3,3-hexafluoro-2-hydroxypropan-2-yl)benzyl)oxy)pyridin-2-yl)piperidin-1-yl)methyl)-1-(2-methoxyethyl)-1H-benzo[d]imidazole-6-carboxylic acid] | 1260 |
| COCCn1c(CN2CCC(c3cccc(OCc4ccc(C(C)(C)O)cc4)n3)CC2)nc2ccc(C(=O)O)cc21 [Example 29, 2-((4-(6-((4-(2-hydroxypropan-2-yl)benzyl)oxy)pyridin-2-yl)piperidin-1-yl)methyl)-1-(2-methoxyethyl)-1H-benzo[d]imidazole-6-carboxylic acid] | 1440 |
| COCCn1c(CN2CCC(c3cccc(OCc4ccc5cccnc5c4)n3)CC2)nc2ccc(C(=O)O)cc21 [Example 36, 1-(2-methoxyethyl)-2-((4-(6-(quinolin-7-ylmethoxy)pyridin-2-yl)piperidin-1-yl)methyl)-1H-benzo[d]imidazole-6-carboxylic acid] | 124 |
| COCCn1c(CN2CCC(c3cccc(OCc4ccc5ncsc5c4)n3)CC2)nc2ccc(C(=O)O)cc21 [Example 28, 2-((4-(6-(benzo[d]thiazol-6-ylmethoxy)pyridin-2-yl)piperidin-1-yl)methyl)-1-(2-methoxyethyl)-1H-benzo[d]imidazole-6-carboxylic acid] | 60.8 |
| COCCn1c(CN2CCC(c3cccc(OCc4ccc5c(c4)C(=O)OC5)n3)CC2)nc2ccc(C(=O)O)cc21 [Example 44, 1-(2-methoxyethyl)-2-((4-(6-((3-oxo-1,3-dihydroisobenzofuran-5-yl)methoxy)pyridin-2-yl)piperidin-1-yl)methyl)-1H-benzo[d]imidazole-6-carboxylic acid] | 109 |
| COCCn1c(CN2CCC(c3cccc(OCc4ccc(-c5ccccc5)cc4)n3)CC2)nc2ccc(C(=O)O)cc21 [Example 12, 2-((4-(6-([1,1′-biphenyl]-4-ylmethoxy)pyridin-2-yl)piperidin-1-yl)methyl)-1-(2-methoxyethyl)-1H-benzo[d]imidazole-6-carboxylic acid] | 1070 |
| COCCn1c(CN2CCC(c3cccc(OCc4cccc5[nH]cnc45)n3)CC2)nc2ccc(C(=O)O)cc21 [Example 33, 2-((4-(6-((1H-benzo[d]imidazol-4-yl)methoxy)pyridin-2-yl)piperidin-1-yl)methyl)-1-(2-methoxyethyl)-1H-benzo[d]imidazole-6-carboxylic acid] | > 10000 |
| COCCn1c(CN2CCC(c3cccc(OCc4ccc5nonc5c4)n3)CC2)nc2ccc(C(=O)O)cc21 [Example 27, 2-((4-(6-(benzo[c][1,2,5]oxadiazol-5-ylmethoxy)pyridin-2-yl)piperidin-1-yl)methyl)-1-(2-methoxyethyl)-1H-benzo[d]imidazole-6-carboxylic acid] | 66.8 |
| COCCn1c(CN2CCC(c3cccc(OCc4ccc(COC)cc4)n3)CC2)nc2ccc(C(=O)O)cc21 [Example 30, 1-(2-methoxyethyl)-2-((4-(6-((4-(methoxymethyl)benzyl)oxy)pyridin-2-yl)piperidin-1-yl)methyl)-1H-benzo[d]imidazole-6-carboxylic acid] | 297 |
| COCCn1c(CN2CCC(c3cccc(OCc4cccc5occc45)n3)CC2)nc2ccc(C(=O)O)cc21 [Example 32, 2-((4-(6-(benzofuran-4-ylmethoxy)pyridin-2-yl)piperidin-1-yl)methyl)-1-(2-methoxyethyl)-1H-benzo[d]imidazole-6-carboxylic acid] | 261 |
| COCCn1c(CN2CCC(c3cccc(OCc4cccc5c4cnn5C)n3)CC2)nc2ccc(C(=O)O)cc21 [Example 8, 1-(2-methoxyethyl)-2-((4-(6-((1-methyl-1H-indazol-4-yl)methoxy)pyridin-2-yl)piperidin-1-yl)methyl)-1H-benzo[d]imidazole-6-carboxylic acid] | 1310 |
| COCCn1c(CN2CCC(c3cccc(OCc4cc5cn[nH]c5cc4F)n3)CC2)nc2ccc(C(=O)O)cc21 [Example 39, 2-((4-(6-((6-fluoro-1H-indazol-5-yl)methoxy)pyridin-2-yl)piperidin-1-yl)methyl)-1-(2-methoxyethyl)-1H-benzo[d]imidazole-6-carboxylic acid] | > 10000 |
| COCCn1c(CN2CCC(c3cccc(OCc4ccc(S(C)(=O)=O)cc4)n3)CC2)nc2ccc(C(=O)O)cc21 [Example 9, 1-(2-methoxyethyl)-2-((4-(6-((4-(methylsulfonyl)benzyl)oxy)pyridin-2-yl)piperidin-1-yl)methyl)-1H-benzo[d]imidazole-6-carboxylic acid] | 1190 |
| COCCn1c(CN2CCC(c3cccc(OCc4ccc5c(c4)OCO5)n3)CC2)nc2ccc(C(=O)O)cc21 [Example 7, 2-((4-(6-(benzo[d][1,3]dioxol-5-ylmethoxy)pyridin-2-yl)piperidin-1-yl)methyl)-1-(2-methoxyethyl)-1H-benzo[d]imidazole-6-carboxylic acid] | 4920 |

Now those with a lower EC50, led by results:

| EC50 [nM] | Compound |
| --- | --- |
| 50.6 | COCCn1c(CN2CCC(c3cccc(OCc4cccc5ccccc45)n3)CC2)nc2ccc(C(=O)O)cc21 [Example 5, 1-(2-methoxyethyl)-2-((4-(6-(naphthalen-1-ylmethoxy)pyridin-2-yl)piperidin-1-yl)methyl)-1H-benzo[d]imidazole-6-carboxylic acid] |
| 22.2 | C#Cc1ccc(COc2cccc(C3CCN(Cc4nc5ccc(C(=O)O)cc5n4CCOC)CC3)n2)cc1 [Example 13, 2-((4-(6-((4-ethynylbenzyl)oxy)pyridin-2-yl)piperidin-1-yl)methyl)-1-(2-methoxyethyl)-1H-benzo[d]imidazole-6-carboxylic acid] |
| 48.5 | COCCn1c(CN2CCC(c3cccc(OCc4ccc5ccncc5c4)n3)CC2)nc2ccc(C(=O)O)cc21 [Example 35, 2-((4-(6-(isoquinolin-7-ylmethoxy)pyridin-2-yl)piperidin-1-yl)methyl)-1-(2-methoxyethyl)-1H-benzo[d]imidazole-6-carboxylic acid] |
| 39.9 | COCCn1c(CN2CCC(c3cccc(OCc4ccc(Cl)c5ccccc45)n3)CC2)nc2ccc(C(=O)O)cc21 [Example 4, 2-((4-(6-((4-chloronaphthalen-1-yl)methoxy)pyridin-2-yl)piperidin-1-yl)methyl)-1-(2-methoxyethyl)-1H-benzo[d]imidazole-6-carboxylic acid] |
| 41.3 | COCCn1c(CN2CCC(c3cccc(OCc4ccc5cnccc5c4)n3)CC2)nc2ccc(C(=O)O)cc21 [Example 26, 2-[[4-[6-(6-isoquinolylmethoxy)-2-pyridyl]-1-piperidyl]methyl]-3-(2-methoxyethyl)benzimidazole-5-carboxylic acid] |
| 28.5 | COCCn1c(CN2CCC(c3cccc(OCc4cccc5c4OC(F)(F)O5)n3)CC2)nc2ccc(C(=O)O)cc21 [Example 1, 2-((4-(6-((2,2-difluorobenzo[d][1,3]dioxol-4-yl)methoxy)pyridin-2-yl)piperidin-1-yl)methyl)-1-(2-methoxyethyl)-1H-benzo[d]imidazole-6-carboxylic acid] |
| 19.8 | COCCn1c(CN2CCC(c3cccc(OCc4cccc5scnc45)n3)CC2)nc2ccc(C(=O)O)cc21 [Example 34, 2-((4-(6-(benzo[d]thiazol-4-ylmethoxy)pyridin-2-yl)piperidin-1-yl)methyl)-1-(2-methoxyethyl)-1H-benzo[d]imidazole-6-carboxylic acid] |
| 10.5 | COCCn1c(CN2CCC(c3cccc(OCc4ccc5c(c4)OC(F)(F)O5)n3)CC2)nc2ccc(C(=O)O)cc21 [Example 6, 2-((4-(6-((2,2-difluorobenzo[d][1,3]dioxol-5-yl)methoxy)pyridin-2-yl)piperidin-1-yl)methyl)-1-(2-methoxyethyl)-1H-benzo[d]imidazole-6-carboxylic acid] |
| 32.4 | COCCn1c(CN2CCC(c3cccc(OCc4ccc5ncccc5c4)n3)CC2)nc2ccc(C(=O)O)cc21 [Example 3, 1-(2-methoxyethyl)-2-((4-(6-(quinolin-6-ylmethoxy)pyridin-2-yl)piperidin-1-yl)methyl)-1H-benzo[d]imidazole-6-carboxylic acid] |
| 11.3 | COCCn1c(CN2CCC(c3cccc(OCc4ccc(C#N)c5ccccc45)n3)CC2)nc2ccc(C(=O)O)cc21 [Example 25, 2-((4-(6-((4-cyanonaphthalen-1-yl)methoxy)pyridin-2-yl)piperidin-1-yl)methyl)-1-(2-methoxyethyl)-1H-benzo[d]imidazole-6-carboxylic acid] |
